Source: ChEMBL document CHEMBL4152191, “New potent and selective A1 adenosine receptor antagonists as potential tools for the treatment of gastrointestinal diseases” (Eur J Med Chem, 2018)
Active and inactive are the calls of the source. No cut-off for these calls is given here.

Tests used:
[1] = target: T1, Adenosine receptor A1 (Homo sapiens, UniProt P30542); test: Displacement of [3H]CCPA from recombinant human adenosine A1 receptor transfected in CHO cell membranes after 3 hrs by microbeta scintillation counting analysis
T1 sequence (P30542 whole entry): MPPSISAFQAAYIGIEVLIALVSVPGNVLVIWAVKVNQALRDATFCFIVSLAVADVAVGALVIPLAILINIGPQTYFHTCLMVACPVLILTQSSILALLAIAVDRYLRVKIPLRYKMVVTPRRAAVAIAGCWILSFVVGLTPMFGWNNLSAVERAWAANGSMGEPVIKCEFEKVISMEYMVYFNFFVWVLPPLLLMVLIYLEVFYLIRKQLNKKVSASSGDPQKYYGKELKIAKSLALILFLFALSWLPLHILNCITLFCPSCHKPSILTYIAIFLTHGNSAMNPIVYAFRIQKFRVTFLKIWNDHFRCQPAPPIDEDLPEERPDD

[2] = target: Adenosine receptor A2a (Homo sapiens, UniProt P29274); test: Displacement of [3H]NECA from recombinant human adenosine A2A receptor transfected in CHO cell membranes after 3 hrs by microbeta scintillation counting analysis
[3] = target: T2, Adenosine receptor A2b (Homo sapiens, UniProt P29275); test: Antagonist activity at recombinant human adenosine A2B receptor expressed in CHO cells assessed as inhibition of NECA-induced adenylyl cyclase activity after 20 mins by [alpha-32P]ATP assay; format: functional, cell-based
T2 sequence (P29275 whole entry): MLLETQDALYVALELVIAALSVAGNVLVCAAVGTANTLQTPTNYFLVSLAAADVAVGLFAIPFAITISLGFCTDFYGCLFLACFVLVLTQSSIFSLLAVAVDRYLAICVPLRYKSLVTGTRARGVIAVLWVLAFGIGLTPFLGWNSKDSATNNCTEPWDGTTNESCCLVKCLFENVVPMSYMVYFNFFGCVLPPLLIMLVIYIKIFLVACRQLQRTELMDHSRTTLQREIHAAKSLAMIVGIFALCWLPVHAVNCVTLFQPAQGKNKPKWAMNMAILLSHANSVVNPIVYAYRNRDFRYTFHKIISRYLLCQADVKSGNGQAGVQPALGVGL

[4] = target: T3, Adenosine receptor A3 (Homo sapiens, UniProt P0DMS8); test: Displacement of [3H]NECA from recombinant human adenosine A3 receptor transfected in CHO cell membranes after 3 hrs by microbeta scintillation counting analysis
T3 sequence (P0DMS8 whole entry): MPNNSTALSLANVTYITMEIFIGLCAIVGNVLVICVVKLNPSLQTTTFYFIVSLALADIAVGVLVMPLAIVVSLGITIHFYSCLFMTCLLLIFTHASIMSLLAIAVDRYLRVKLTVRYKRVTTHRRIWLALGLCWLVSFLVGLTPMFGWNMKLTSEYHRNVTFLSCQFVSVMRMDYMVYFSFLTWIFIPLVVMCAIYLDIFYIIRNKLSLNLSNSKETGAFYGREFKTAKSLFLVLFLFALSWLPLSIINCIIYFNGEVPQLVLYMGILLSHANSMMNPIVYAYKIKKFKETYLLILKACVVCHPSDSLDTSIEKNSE

[5] = species on record: Homo sapiens; test: Selectivity index, ratio of Ki for recombinant human adenosine A2A receptor to Ki for recombinant human adenosine A1 receptor
[6] = species on record: Homo sapiens; test: Selectivity index, ratio of Ki for recombinant human adenosine A2B receptor to Ki for recombinant human adenosine A1 receptor
[7] = target: Adenosine receptors; A1 & A3 (Homo sapiens) (UniProt P30542+P0DMS8); test: Selectivity index, ratio of Ki for recombinant human adenosine A3 receptor to Ki for recombinant human adenosine A1 receptor
[8] = target: T1, Adenosine receptor A1; test: Antagonist activity at recombinant human adenosine A1 receptor transfected in CHO cells assessed as inhibition of CCPA-induced cAMP accumulation preincubated for 10 mins followed by CCPA addition by GloSensor cAMP assay; format: functional, cell-based
[9] = target: T4, Adenosine receptor A1 (Mus musculus) (UniProt Q60612); test: Antagonist activity at adenosine A1 receptor in BALB/C mouse ileum assessed as reversal of CCPA-induced reduction in rhythmic spontaneous contractions at 1 uM after 1 hr; format: functional
T4 sequence (whole entry): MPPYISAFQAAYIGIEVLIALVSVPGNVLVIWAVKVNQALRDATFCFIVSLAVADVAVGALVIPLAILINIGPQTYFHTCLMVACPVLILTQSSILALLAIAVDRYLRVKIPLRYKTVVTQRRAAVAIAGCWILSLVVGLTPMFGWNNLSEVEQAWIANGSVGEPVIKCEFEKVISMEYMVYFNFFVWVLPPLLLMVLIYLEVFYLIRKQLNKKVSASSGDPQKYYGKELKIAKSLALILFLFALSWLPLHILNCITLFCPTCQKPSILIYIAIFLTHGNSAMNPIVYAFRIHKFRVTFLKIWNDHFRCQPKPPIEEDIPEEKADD

[10] = target: T4, Adenosine receptor A1 (Mus musculus); test: Activity at adenosine A1 receptor in BALB/C mouse ileum assessed as effect on amplitude of rhythmic spontaneous contractions at 1 uM after 1 hr; format: functional
[11] = target: T4, Adenosine receptor A1 (Mus musculus); test: Activity at adenosine A1 receptor in BALB/C mouse ileum assessed as effect on frequency of rhythmic spontaneous contractions at 1 uM after 1 hr; format: functional

Sequence of Adenosine receptor A2a (P29274 whole entry): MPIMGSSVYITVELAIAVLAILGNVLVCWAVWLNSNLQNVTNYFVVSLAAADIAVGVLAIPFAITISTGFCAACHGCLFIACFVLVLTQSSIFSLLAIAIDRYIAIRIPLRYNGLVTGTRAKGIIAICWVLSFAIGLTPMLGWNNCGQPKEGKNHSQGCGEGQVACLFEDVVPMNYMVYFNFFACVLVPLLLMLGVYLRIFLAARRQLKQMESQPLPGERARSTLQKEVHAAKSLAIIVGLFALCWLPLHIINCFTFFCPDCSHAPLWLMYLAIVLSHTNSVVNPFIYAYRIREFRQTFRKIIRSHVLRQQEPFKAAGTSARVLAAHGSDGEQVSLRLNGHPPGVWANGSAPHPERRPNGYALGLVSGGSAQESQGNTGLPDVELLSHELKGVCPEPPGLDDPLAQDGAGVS

| SMILES | Ki [1] [nM] | Ki [2] [nM] | Ki [3] [µM] | Ki [4] [nM] | Ratio Ki [5] | Ratio Ki [6] | Ratio Ki [7] | IC50 [8] [nM] | Kb [9] [nM] | Activity [10] | Activity [11] |
| --- | --- | --- | --- | --- | --- | --- | --- | --- | --- | --- | --- |
| CCn1c(-c2ccccc2)nc2c(NC3CCOC3)ncnc21 (stereo not given) | 10 | 1020 | 11.5 | 1660 | 102 | 1150 | 166 | – | – | – | – |
| Cn1c(-c2ccccc2)nc2c(NC3CCOC3)ncnc21 (stereo not given) | 8 | 1830 | 13.3 | 6260 | 229 | 1660 | 783 | – | – | – | – |
| COc1ccc(-c2nc3c(NC4CCCC4)ncnc3n2C)cc1 | 75 | 1790 | > 30 | 1850 | 24 | > 400 | 25 | – | – | – | – |
| CCn1c(-c2ccccc2)nc2c(NC3CCCCC3)ncnc21 | 10 | 307 | 9.02 | 707 | 31 | 902 | 71 | – | – | – | – |
| CCCn1c(-c2ccccc2)nc2c(NC3CCOC3)ncnc21 (stereo not given) | 25 | 1700 | 9.08 | 2810 | 68 | 363 | 112 | – | – | – | – |
| Cn1c(-c2ccccc2)nc2c(NC3CCCCC3)ncnc21 | 5.7 | 527 | > 30 | 2370 | 92 | > 5260 | 416 | – | – | – | – |
| Cn1c(-c2ccccc2)nc2c(N)ncnc21 | 23 | 381 | 7.79 | 14000 | 17 | 339 | 609 | – | – | – | – |
| Cn1c(-c2ccc(C(=O)O)cc2)nc2c(NC3CCCC3)ncnc21 | 54000 | > 100000 | > 30 | 25700 | > 1.9 | > 0.6 | 0.5 | – | – | – | – |
| CCCn1c(-c2ccccc2)nc2c(NC3CCCCC3)ncnc21 | 27 | 1060 | 5.31 | 2360 | 39 | 197 | 87 | – | – | – | – |
| Cn1c(-c2ccc(F)cc2)nc2c(NC3CCCC3)ncnc21 | 6.2 | 2400 | > 30 | 1140 | 387 | > 4840 | 184 | 32 | 43 | inactive | inactive |
| CCCn1c(-c2ccccc2)nc2c(NC3CCC3)ncnc21 | 15 | 365 | 0.774 | 264 | 24 | 52 | 18 | – | – | – | – |
| Cc1ccccc1-c1nc2c(NC3CCCC3)ncnc2n1C | 55 | 6980 | > 30 | 3000 | 127 | > 545 | 55 | – | – | – | – |
| Cn1c(-c2ccccc2Cl)nc2c(NC3CCCC3)ncnc21 | 37 | 3080 | > 30 | 720 | 83 | > 811 | 19 | – | – | – | – |
